Source: patent US10485814B2, “Nicotinamide riboside analogs and pharmaceutical compositions and uses thereof” (GlaxoSmithKline Intellectual Property (No. 2) Limited, priority 2014, dated 2019)

What was measured:
[1] = Precipitation on addition of stock solution to cell culture media; type: physicochemical
Description: (§1) HaCaT cells were grown in regular culture media as described in example 1 and seeded in 12-well plates with density at 2×10^5 cells per well and 1 ml of culture medium in each well. NRH stock solution was prepared in ethanol at 100 mM (25.6 mg/ml) and stored at −20° C. Stock solutions of NRH esters were made at 50 mM in DMSO (see FIG. 9B for compound info). Cells were treated with NRH esters and NRH at 150 μM for 6 and 16 hrs, washed twice with PB S containing 5 mM EDTA, and then subject to Nicotinamide adenine dinucleotide (NAD) measurement as described in example 23.
HaCaT cells were grown in regular culture media as described above and seeded in 12-well plates with density at 2×10^5 cells per well and 1 ml of culture medium in each well. NRH stock solution was prepared in ethanol at 100 mM (25.6 mg/ml) and stored at −20° C. NRH (200 μM) was used as a positive control. Because of the possible solubility issue related to NRH monoC16, fatty acid-free bovine serum albumin (defatted BSA, Sigma) was used as a carrier for the compound. NRH monoC16 stock solution (100×) was complexed with defatted BSA ([…]) prior to the treatment, resulting in a NRH monoC16 stock solution (10 ×). NRH monoC16 was then added to the culture media giving a final BSA concentration of 100 μM. […] Defatted BSA was also added to the control samples at a final concentration of 100 μM. […]

[2] = Gravimetric Vapor Sorption (GVS); type: physicochemical; settings: 90% RH, 25° C.
Description: Gravimetric Vapor Sorption (GVS): Samples were analyzed using a VTI corporation (now part of TA Instruments) SGA-100 with Cahn microbalance equipped with quartz sample and reference pans. Samples were dried in the SGA-100 under dry nitrogen for 5 hours at 25° C. followed by a moisture absorption step ramp from 5% relative humidity (RH) to 95% or 90% RH followed by a desorption step ramp back to 5% or 10% RH (all steps at 25° C.). The samples were held at each % RH step for 4 hours.

[3] = system: HaCaT cells (a human keratinocyte cell line); test: Intracellular NAD measurement in HaCaT cells (ADPR cyclase enzymatic assay, absorbance 405 nm); type: cell-based
Description: HaCaT cells (AddexBio Technologies, San Diego, Calif., Passage 16-19) were grown in Medium DMEM/GlutMax (Life technologies, Grand Island, N.Y.) supplemented with 10% FBS (Life technologies) and Non-essential amino acids (NEAA, Life technologies) and then seeded in 12-well plates (Corning, Tewksbury, Mass.) with a density at 2×10^5 cells per well and 2 ml of culture medium in each well for overnight.
Stock solution of dihydronicotinamide riboside (NRH, GSK3008320A, GSK, RTP, NC) was prepared in ethanol at 100 mM (25.6 mg/ml) and stored at −20° C. Cells were treated with different concentrations of NRH for 3 hrs, washed twice with PBS containing 5 mM EDTA, and then subject to Nicotinamide adenine dinucleotide (NAD) measurement. In brief, acetonitrile (ACN) lysis buffer (Ammonium Acetate (50 mM) and 90% acetonitrile) was added to each well (200 μl/well) to lyse the cells at RT for 5-10 mins by gently rotating on a culture plate shaker at a low speed. Enzyme master mix (300 μM of 5-Amino-(3,4′-bipyridin)-6(1H)-one (Inamrinone) (Sigma-Aldrich), a substrate for ADP ribosyl cyclase (ADPR cyclase)) and 30 nM ADPR Cyclase (Sigma, St. Louis, Mo.), 7.5 μM of N-(2-fluoro-4-(methylsulfonyl)phenyl)-2-methyl-6-(thiazol-5-yl)isonicotinamide (a CD38 inhibitor) in 75 mM HEPES pH7 buffer (Life Technologies)) was added to the lysed cells (400 μl of enzyme master mix/well). Enzymatic reaction was incubated at RT for ˜30 min. At the end of incubation, the supernatant (200 μl) of the reaction solution from each well was transferred to each well of a 96-well plate and absorbance was read twice in the 96-well plate at 405 nm using a plate reader (Spectra Maxplus, Molecular Devices, Sunnyvale, Calif.). A mixture of enzyme master mix and ACN extraction solution at 2:1 ratio was used as a blank reference. NAD (Sigma) was used as a positive control.
HaCaT cells were grown as described in example 23 in the regular cell culture DMEM medium as described earlier or in the Epilife medium without nacinamide (Life Technologies). Cells were treated with different concentrations of NRH or niacinamide (NIA, DSM nutritional products) for 3 hrs, washed twice with PBS containing 5 mM EDTA, and then subject to Nicotinamide adenine dinucleotide (NAD) measurement as described in example 23. A mixture of enzyme master mix and ACN extraction solution at 2:1 ratio for a blank reference. NAD (Sigma) was used as a positive control. […] Both the CD38 inhibitor and Niacinamide increased NAD in the HaCaT cells cultured in the Vit B3 depleted culture medium, and the induction of NAD by niacinamide was dose-dependent (solid bars). However, the induction of NAD by niacinamide (highest at ˜1.5 fold) was low compared to those by NRH. Therefore, NRH is a stronger NAD inducer compared to a CD38 inhibitor or Niacinamide.
as §1
HaCaT cells were grown in regular culture media as described above and seeded in 12-well plates with density at 2×10^5 cells per well and 1 ml of culture medium in each well. NRH stock solution was prepared in ethanol at 100 mM (25.6 mg/ml) and stored at −20° C. NRH (200 μM) was used as a positive control. Because of the possible solubility issue related to NRH monoC16, fatty acid-free bovine serum albumin (defatted BSA, Sigma) was used as a carrier for the compound. NRH monoC16 stock solution (100×) was complexed with defatted BSA ([…]) prior to the treatment, resulting in a NRH monoC16 stock solution (10 ×). […]

[4] = system: HaCaT cells; test: H2O2-induced reactive oxygen species (ROS) in HaCaT cells (CellROX deep red); type: cell-based, human; settings: 3 hr pre-incubation then 250 μM H2O2, Hydroxyterosol 0.005%, niacinamide 4.5 mM, NRH several concentrations
Description: HaCaT cells were grown as described in example 23 and were seeded in 96-well plates (Nunc™ black with optical bottom, Thermo Fisher Scientific, Inc., Waltham, Mass.) with a density at 2×10^4 cells per well and 100 μl medium in each well, and grown overnight before treatments. Stock solutions of NRH and other test compounds were prepared and diluted to 2× of final treatment concentrations in DMEM medium in 96-well storage plate as indicated in the FIG. 11. HaCaT Cells were treated in triplicates by adding 100 μl of diluted solutions of test compounds (2×) to each well containing 100 μl medium already. Cells were incubated in the presence of test compounds for 3 hrs. At the end of 3 hr incubation, cells were washed once with 200 μl DPBS with Ca^++ and Mg^++ (Life Technologies) and then fed with 100 μl DMEM medium each well containing H2O2 at 250 μM (as a ROS (reactive oxygen species) inducer, Sigma). After 30 min incubation, cells were washed once with 200 μl DPBS with Ca^++ and Mg^++ and CellROX deep red reagent (2.5 mM stock solution, Life Technologies) was added to the medium to a final concentration of 5 μM. After 1 hr incubation at 37° C., 5% CO2, Cells were washed for 3 times with DPBS, fluorescence signal was read at Ex. 640 nm and Em. 665 nm in Biotek Synergy H4 microplate reader (BioTek, Winooski, Vt.). Untreated cells were served as controls (normalized to 1). All the treated samples were normalized to the untreated control.

[5] = system: Reconstructed human epidermis (EpiDerm, EPI-200); test: UVB-induced inflammation mediators in reconstructed epidermal equivalents; type: cell-based; settings: topical 1 hr pre-treatment, NRH 0.1% or niacinamide 3%, UVB 150 mJ/cm^2, media 6 hr post irradiation
Description: Solar Ultraviolet (UV) light exposure on skin causes photoaging, sunburn, DNA damages and carcinogenesis. UV radiation (UVR) also results in inflammation, which can be measured in vitro by pro-inflammatory mediators, e.g., TNF-α, IL-8. The in vitro reconstructed human epidermis (RHE) model is used to evaluate the anti-inflammatory effect of NRH.
Reconstructed human epidermis (EpiDerm, EPI-200, made of normal human epidermal keratinocytes, MatTek, Ashland, Mass.), were placed into media (EPI-100-ASY, 1.0 ml/well of 6-well plates) and incubated overnight at 37° C./5% CO2. The media was replenished with fresh culture media prior to study. NRH at 0.1% and niacinamide at 3% in vehicle (50% H2O/35% ethanol/15% propylene glycol, v/v/v) were applied topically at 6 μl and then gently spread onto the skin equivalents (˜20 rotations) using the rubber side of a plunger of 1 ml syringe. Vehicle was served as an untreated control. After 1 hr pre-treatment with NRH, niacinamide, or vehicle control, the EpiDerm tissues were transferred to a sterile 6-well plate containing 1 ml of DPBS per well and then exposed to UVB at 150 mJ/cm^2. The Newport Solar Simulator System (Power unit 69920, and Lamp 91192-1000, Newport Corporate, Irvine, Calif.) was used as the UVB emitter to achieve a UVB irradiation of 150 mJ/cm^2. Measurement of the irradiation was taken using an ILT-1400 Handheld, Portable Radiometer/Photometer (International Light Technologies, Inc., Peabody, Mass.) with a UVB detector (SEL240/T2ACT5, 235-307 nm, International Light Technologies, Inc.). After UVB irradiation, EpiDerm tissues were transferred back to the 6-well plate containing media and incubated at 37° C./5% CO2 for 6 hours. At the end of the incubation (6 hr post UVB irradiation), culture media were collected for the measurement of IL-8, and TNF-α concentration by MagPix (Millipore, HCYTOMAG-60K).

[6] = system: Human dermal fibroblasts; test: TNFα-induced gene expression in dermal fibroblasts (QPCR); type: cell-based; settings: TNFα 10 ng/ml, 30 hr
Description: Human dermal fibroblasts were grown in regular culture media as described in example 23 above and seeded in 12-well plates at 2×10^5 cells per well for overnight. Cells were then replenished with fresh medium and treated with TNFα (10 ng/ml) with and without NRH (200 μM) for 30 hr. At the end of the incubation, cells were washed once with HBSS with Ca^2+ and Mg^2+ (Life Technologies), and subject to RNA isolation and QPCR analyses.

[7] = HaCaT in Vit B3 depleted culture medium, 3 hrs

Compound: CCCCCCCCCCCCCCCC(=O)OC[C@H]1O[C@@H](N2C=CCC(C(N)=O)=C2)[C@H](O)[C@@H]1O [NRH monoC16]
- precipitation when stock solution added to the media ([1]; 50 mM DMSO stock added to culture media, 150 μM): noticeable precipitations occurred
- precipitation in culture media ([1]; stock complexed with defatted BSA, final BSA 100 μM): no precipitation was observed
- GVS weight gain from the dried state [2]: approximately 7%
- NAD boosting activity ([3]; HaCaT, 150 μM, 6 and 16 hrs): higher NAD boosting activity compared to all the other tested NR esters
- activity after 24 hr compared with 6 hr treatment ([3]; HaCaT, defatted BSA carrier): a higher activity was observed
- NAD levels ([3]; HaCaT, different concentrations, defatted BSA carrier (100 μM), 6 and 24 hrs): increases NAD levels in a dose dependent manner
- NAD boosting activity relative to NRH ([3]; HaCaT, same concentrations, defatted BSA carrier): slightly lower than that of NRH

Compound: NC(=O)c1cccnc1 [Niacinamide, pyridine-3-carboxamide, reference compound]
- H2O2-induced ROS [4]: did not inhibit
- UVB-induced IL-8 [5]: not
- UVB-induced TNF-α [5]: not
- UVB-induced IL-8 ([5]; listed as niacinamide): did not inhibit
- UVB-induced TNF-α ([5]; listed as niacinamide): did not inhibit
- NAD elevation ([3]; HaCaT in DMEM medium with Vit B3, highest tested doses, 3 hrs): did not lead to NAD elevation
- NAD level [3, 7]: increased NAD
- dose dependence of induction of NAD [3, 7]: dose-dependent
- induction of NAD (highest) [3, 7]: ~1.5 fold

Compound: TNF-α
- COX-2 gene expression [6]: induced COX-2 gene expression
